Measurements reported in patent US20200003760A1, “IN-VITRO METHODS FOR CLASSIFYING DRUGS ACCORDING TO THEIR POTENTIAL TO CAUSE LIVER CELL INJURY” (Board of Trustees of Michigan State University, priority 2018, published 2020).
Entries after “also recorded” stand apart in the source; their conditions may differ. Where two headings read alike, the source gives them in different places.

Tests used:
HepG2 cells = assay: Drug/cytokine-induced cytotoxicity (% LDH release) concentration-response in HepG2 cells; assay type: cell-based, human; set-up: key to Deltadiff: LDH release percentage points (drug/TNF Delta minus drug/VEH Delta); conditions: for R10 / R10 IFN / R10 TNF / R10 TNF/IFN: 10 percent increase in LDH response above min, 0 when D10 = 0; for R10 / Emax / D10 (LDH rise of at least 10 points, yes/no) / EC10: drug alone (VEH); for R10 IFN: with IFN; for R10 TNF: with TNF; for R10 TNF/IFN / EC10 TNF/IFN: with TNF and IFN; for Deltadiff: Delta of drug/TNF curve minus Delta of drug/VEH curve (LDH percentage); for cytotoxic interaction of drug with TNF: TNF 10 ng/ml; for cytotoxicity of drug on its own (LDH release): absence of cytokines; for Emax / D10 (LDH rise of at least 10 points, yes/no): Homo sapiens, HepG2; for TNF change: D10TNF − D10VEH; for EC10: value corresponding to 10% of Delta (max-min); for EC10 TNF: with TNF 10 ng/ml
Description: Cells were passed or used for experiments when they reached approximately 80% confluence. Cells were used at passage 6-16.
HepG2 cells were plated at a density of 4×10^4 cells per well in black-walled, 96-well, tissue culture plates and were allowed to attach overnight before being treated with compounds. Drugs were reconstituted in vehicles consisting of sterile water or DMSO (concentration less than 0.5%). Cells were treated with various concentrations of the drug or its vehicle (control) alone or in combination with the cytokines TNF (10 ng/ml) and/or IFN (10 ng/ml) or their PBS vehicle (VEH). Cytotoxicity was evaluated as lactate dehydrogenase (LDH) activity released from the cells into culture medium using the Homogeneous Membrane Integrity Assay kit from Promega (Madison, Wis.).
Concentration-response curves were generated for 24 drugs, 14 of which are associated with human IDILI and 10 of which are not. […] This was necessary because four-parameter logistic modeling used in the statistical analysis requires well defined, sigmoidal concentration-response curves. Cells were exposed to drug/cytokine combinations for 24 hours. For analysis of drug concentration-response data, concentrations of each drug were expressed as a fraction of its Cmax.
Defining covariates: four-parameter logistic model. In the first phase, variables (potential covariates) for use in the classification analysis were defined from the analysis of drug concentration-response data. Initially, a one-way analysis of variance (ANOVA) was used as an omnibus test to determine if a particular treatment (e.g. drug alone or in combination with TNF and/or IFN) caused a significant change in LDH release relative to baseline (i.e., LDH release in the absence of drug, hereafter designated “min”). The criterion for significance for the ANOVA was set at α=0.01. A 1% level of significance was used to rule out more vigorously marginal relationships between concentration and response.
where LDH(x) is the percentage of LDH released at a given concentration x; x=[drug]/Cmax; min=the % LDH release at 0 drug concentration (i.e., baseline); and max=the maximal LDH response (i.e., maximum % LDH release).
where D10 is a categorical variable related to reaching a threshold LDH response above which a drug is classified as positively associated with IDILI. D10 is defined as 0 if Delta<10% LDH release and as 1 if Delta≥10% LDH release.
The base covariate R10 represents the [drug]/Cmax value associated with an increase in 10 LDH percentage points above min for a particular treatment condition and was determined by the equation:
R10 was considered to be 0 when the Delta<10% LDH (i.e. when D10=0).
EC50 quotient, EC10 quotient and R10 quotient represent the ratio between the EC50, EC10 or R10 of the drug/cytokine concentration-response curve and the respective value for the drug/VEH concentration-response curve. In some instances, the value derived from this calculation is indeterminate (i.e. when the denominator=0). In order to incorporate the quotient values into the classification models described below, the categorical variable “Q” was used to eliminate the possibility of the quotient being indeterminate. Q is defined as 0 if Delta VEH and/or Delta cytokine is <10% LDH and 1 if both Delta VEH and Delta cytokine are ≥10% LDH. […] The same condition was applied for calculation of EC10 quotient and R10 quotient.
Deltadiff represents the difference between the Delta of the drug/cytokine concentration-response curve and the Delta of the drug/VEH curve. In other words, Deltadiff=(Delta cytokine)−(Delta VEH). FIG. 1 graphically illustrates several of the covariates defined above. […] In addition to the covariates derived from the concentration-response curves, the maximal therapeutic plasma drug concentration (Cmax) in human patients was used in some models (Table 1).

[1] = Logistic regression classification model: probability that a drug is associated with IDILI; set-up: species or system human; conditions: for classification by the best-performing model: optimal cutoff; for Estimated probability: probability that drug is associated with IDILI, covariates Deltadiff, EC50 VEH, EC50 TNF, Delta VEH, Cmax, optimal cutoff 0.46
Excerpt: Classification modeling using defined covariates. In the second phase of analysis, classification models were developed using logistic regression with covariates as independent variables in the analysis and known IDILI classification as the dependent variable. A model selection process was used to determine if a covariate or set of covariates is associated with IDILI liability. Covariates were first evaluated individually to determine how well a particular covariate classified drugs according to IDILI liability, and then covariates were evaluated in combination. Combinations of covariates were selected to maximize the ability of the model to distinguish between drugs associated or not with IDILI. Specifically, covariates that describe changes in efficacy (Delta, Deltadiff, etc.) were paired with covariates that describe changes in potency (EC50, EC10, R10, etc.) to find covariate combinations that led to models that most accurately discriminated between drugs that are and are not associated with IDILI. […] The logistic regression models follow the equation: […]
where ŷi is the calculated (predicted) probability that drug i with a vector of covariates xi is associated with IDILI. The β coefficients (β0, the regression intercept; and βi, the regression slopes for model covariates, xi) were derived from the logistic regression models using 1) combinations of the covariates (xi) generated by concentration-response modeling for each of the 24 drugs evaluated in this study, and 2) the true IDILI classification for the dependent variable yi (i.e., 1 for IDILI+drugs and 0 for IDILI-drugs). […] This occurs when a covariate almost perfectly separates observations into the appropriate categories. […] When separation or quasi-complete separation occurs, use of the standard method (i.e., maximum likelihood estimation) provides biased, unreliable estimates of βi.
Receiver operating characteristic (ROC) analysis. In the third phase of the statistical approach, the classification models, generated as logistic regression models using single covariates or combinations of covariates, were evaluated by ROC analysis to determine which model and corresponding sets of covariates led to the most accurate classification of drugs according to their potential to cause IDILI. An ROC curve was created for each model by graphing the true positive rate (sensitivity; i.e., proportion of drugs correctly classified as associated with IDILI) against the false positive rate (1-specificity; i.e., proportion of drugs incorrectly classified as associated with IDILI) at various probability cutoff thresholds (k). […] An area under the curve (AUC) and confidence interval was computed for each ROC curve (where each logistic regression model has one ROC curve). […] Corresponding to each ROC curve is an optimal threshold value (k*), the threshold yielding the highest point of accuracy on the curve (i.e., the point nearest the point […] on the curve). Thus, each ROC curve has a corresponding AUC and an optimal cutoff (k*) that corresponds to the highest point of accuracy on that ROC curve.

[2] = maximal plasma concentration after pharmacologic dosing in human patients; cited from earlier work
[3] = cited from earlier work; for True classification: IDILI in human patients; for IDILI liability: criteria of Xu et al. (2008); for pattern of liver injury in humans: human patients
[4] = categorical, Delta threshold 10 LDH percentage points, read-out: D10
[5] = maximal LDH response, 24 h, read-out: max
[6] = categorical, Delta threshold 10 LDH percentage points
[7] = value corresponding to 10% of Delta, NA = no significant increase

Row | Structure (SMILES) | Estimated probability [1] | R10 (HepG2 cells) | R10 IFN (HepG2 cells) | R10 TNF (HepG2 cells) | R10 TNF/IFN (HepG2 cells) | Deltadiff (HepG2 cells) | cytotoxic interaction of drug with TNF (HepG2 cells; HepG2, 24 h) | cytotoxicity of drug on its own (LDH release) (HepG2 cells; HepG2, 24 h) | Emax (HepG2 cells; [4]) [%] | Emax (HepG2 cells; [5]) [%] | TNF change (HepG2 cells; categorical) | classification by the best-performing model [1] | Cmax [2] [µM] | True classification [3] | IDILI liability [3] | pattern of liver injury in humans [3] | D10 (LDH rise of at least 10 points, yes/no) (HepG2 cells; [6]) [%] | EC10 (HepG2 cells; NA = no significant increase) | EC10 TNF (HepG2 cells; [7]) | EC10 TNF/IFN (HepG2 cells; [7]) | other results
1 | O=C(O)[C@H]1/C(=C/CO)O[C@@H]2CC(=O)N21 [Clavulanate] | 0.9509 | 0 [drug]/Cmax | 0 [drug]/Cmax | 0 [drug]/Cmax | 0 [drug]/Cmax | 3.1 | interacted only weakly with TNF | caused no cytotoxicity on their own | < 10 | 17.4 | 0 | correctly as IDILI1 | 12 | IDILI+ | IDILI+ | cholestatic pattern of injury |  |  |  |  | cytotoxic interaction of drug with TNF (HepG2 cells; HepG2, 24 h, listed as clavulanate): synergized with TNF to cause cytotoxicity; also recorded: small but statistically significant
2 | NNC(=O)c1ccncc1 [Isoniazid] | 0.7562 | 440.9 [drug]/Cmax | 434.0 [drug]/Cmax | 268.1 [drug]/Cmax | 208.7 [drug]/Cmax | 38.8 | TNF significantly enhanced the cytotoxicity | statistically significant increase in LDH release |  | 57.7 | 0 |  | 77 | IDILI+ | IDILI+ |  | > 10 | 427.0 [drug]/Cmax | 248.0 [drug]/Cmax | 169.7 [drug]/Cmax | effect of IFN coexposure on the drug/TNF cytotoxic interaction (HepG2 cells; HepG2, 24 h, TNF and IFN 10 ng/ml each): coexposure to IFN enhanced the cytotoxic interaction; EC10 IFN (HepG2 cells; value corresponding to 10% of Delta, with IFN 10 ng/ml, NA = no significant increase): 420.5 [drug]/Cmax

Further lines, with some results ahead:

Row | Estimated probability [1] | Structure (SMILES) | R10 (HepG2 cells) | R10 IFN (HepG2 cells) | R10 TNF (HepG2 cells) | R10 TNF/IFN (HepG2 cells) | Deltadiff (HepG2 cells) | cytotoxic interaction of drug with TNF (HepG2 cells; HepG2, 24 h) | cytotoxicity of drug on its own (LDH release) (HepG2 cells; HepG2, 24 h) | Emax (HepG2 cells; [4]) [%] | Emax (HepG2 cells; [5]) [%] | TNF change (HepG2 cells; categorical) | classification by the best-performing model [1] | Cmax [2] [µM] | True classification [3] | IDILI liability [3] | pattern of liver injury in humans [3] | D10 (LDH rise of at least 10 points, yes/no) (HepG2 cells; [6]) [%] | EC10 (HepG2 cells; NA = no significant increase) | EC10 TNF (HepG2 cells; [7]) | EC10 TNF/IFN (HepG2 cells; [7]) | other results
3 | 0.8839 | COc1cccc2c1C(=O)c1c(O)c3c(c(O)c1C2=O)C[C@@](O)(C(=O)CO)C[C@@H]3O[C@H]1C[C@H](N)[C@H](O)[C@H](C)O1 [Doxorubicin] | 12.4 [drug]/Cmax | 9.7 [drug]/Cmax | 2.0 [drug]/Cmax | 0.7 [drug]/Cmax | −15.2 | TNF significantly enhanced the cytotoxicity | statistically significant increase in LDH release |  | 113 | 0 |  | 1 | IDILI+ | IDILI+ |  | > 10 | 12.0 [drug]/Cmax | 1.7 [drug]/Cmax | 0.6 [drug]/Cmax | 
4 | 0.1545 | Cc1onc(-c2c(F)cccc2Cl)c1C(=O)N[C@@H]1C(=O)N2[C@@H]1SC(C)(C)[C@@H]2C(=O)O [Flucloxacillin] | 0 [drug]/Cmax | 0 [drug]/Cmax | 0 [drug]/Cmax | 0 [drug]/Cmax | 0 | no statistically significant increase in LDH | no statistically significant increase in LDH | < 10 | 17.9 | 0 | incorrectly classified as not associated with IDILI | 72.6 | IDILI+ | IDILI+ | cholestatic rather than hepatocellular |  |  |  |  | synergy with cytokines to kill HepG2 cells (HepG2 cells; HepG2, 24 h, TNF and/or IFN): did not synergize with cytokines to kill HepG2 cells; calculated probability for association with IDILI ([1]; best-performing classification model): 0.154
5 | 0.1275 | CC(=O)[C@]1(O)Cc2c(O)c3c(c(O)c2[C@@H](O[C@H]2C[C@H](N)[C@H](O)[C@H](C)O2)C1)C(=O)c1ccccc1C3=O [Idarubicin] | 0 [drug]/Cmax | 0 [drug]/Cmax | 0 [drug]/Cmax | 0 [drug]/Cmax | 0 |  |  | < 10 | 13.9 | 0 |  | 0.02 | IDILI− | IDILI− |  |  |  |  |  | 
6 | 0.1275 | CC(CN1c2ccccc2Sc2ccccc21)N(C)C (centres unmarked) [Promethazine] | 0 [drug]/Cmax | 0 [drug]/Cmax | 0 [drug]/Cmax | 0 [drug]/Cmax | 0 |  |  | < 10 | 17 | 0 |  | 0.06 | IDILI− | IDILI− |  |  |  |  |  | 
